Consider six compounds from publication PMC11123929, “A Comparative Study and Prediction of the Ex Vivo Permeation of Six Vaginally Administered Drugs across Five Artificial Membranes and Vaginal Tissue” (Molecules, 2024).

For data set [1] the following is noted: cited from earlier work; for PSA: ref Pubchem [1].
A short description of data set [2]: Franz diffusion cell in vitro permeability, PVDF membrane. Particulars: for Cumulative Amount Permeated, PVDF (Hydrophobic): after 8 h, mean ± SD (n = 3); for Papp at 8 h: pH 7.4; for permeation order of the substance, PVDF (Hydrophobic): rank among the six drugs by cumulative amount after 8 h. An excerpt:
(§1) There are many membranes available on the market that are grouped as cellulosic and polymeric. Taking into account those that are more convenient and economical, two synthetic membranes and their combinations were used. Synthetic PVDF (polyvinylidene difluoride) and cellulose acetate (Table S2) membranes were pre-treated according to the supplier’s instructions. Cellulose membranes were further treated to acquire their lipophilic properties. Thus, they were placed on a flat glass surface and completely coated with IPM (isopropyl myristate) solution. The cellulose membrane was allowed to incubate in the IPM solution for 30 min. After impregnation, the excess IPM solution was drained off, and the membrane was used for the in vitro experiments. To ensure that the procedure was carried out successfully, the cellulose membrane was weighed before and after pretreatment.
(§2) The in vitro permeability profile of each compound was evaluated using the Franz diffusion cell setup (PermeGear, Hellertown, PA, USA). Five distinct artificial membranes were placed between the donor (upper) and receiver (lower) chambers of cells, with an effective diffusion area of 4.9 cm^2 and a receptor volume of 20 mL; 1 mL of APIs solutions were placed in the donor compartment, which was sealed with Parafilm® to prevent any loss of moisture. The acceptor contained degassed PBS at pH 7.4. The procedure was performed under agitation at 90 rpm and at a temperature of 37 °C ± 0.2 °C.
(§3) At specified intervals (t = 2, 3, 4, 6, and 8 h), 0.5 mL of the samples was taken from the receptor compartment and replaced with an equal volume of freshly prewarmed receptor medium. The concentration of each API was quantified using the appropriate HPLC method (Section 4.1) without sample pretreatment. Blanks containing PBS were pretreated with the same procedure. Each sample was analyzed in triplicate, and its cumulative release over time was plotted (Figure 2). The steady-state flux (Jss) was determined by plotting the permeation of the API per unit area (μg/cm^2) against time (h) and calculating the slope of the linear portion of the resulting line. Equation (1) was applied to calculate the apparent permeability coefficient (cm/h) (Paap).

Data set [3] in a line: Franz diffusion cell in vitro permeability, IPM-impregnated cellulose membrane. Particulars: for Cumulative Amount Permeated, Impregnated IPM: after 8 h, mean ± SD (n = 3); for Papp at 8 h: pH 7.4; for permeation order of the substance, Impregnated IPM: rank among the six drugs by cumulative amount after 8 h.
Description: as §1, §2, §3

Data set [4] in a line: Franz diffusion cell in vitro permeability, hybrid IPM-cellulose membrane.
Description: as §1, §2, §3

A short description of data set [5]: Franz diffusion cell in vitro permeability, cellulose membrane. Particulars: for Cumulative Amount Permeated, Cellulose (Hydrophilic): after 8 h, mean ± SD (n = 3); for Papp (experimental, in vitro): cellulose membrane, Table 6, compared with PLS prediction; for Papp at 8 h: pH 7.4; for permeation order of the substance, Cellulose (Hydrophilic): rank among the six drugs by cumulative amount after 8 h.
Description: as §1, §2, §3

The nature of data set [6]: Ex vivo permeability in Franz diffusion cell, cow vaginal tissue. The protocol: Ex vivo experiments were conducted on cow vaginal mucosa sourced from a local slaughterhouse. Tissues with an exposure area of 0.19 cm^2 were placed in a Franz diffusion cell with the epithelial mucosa side facing the donor compartment. In the donor compartment, 200 μL of API’s solution in VFS (pH 4.5) was added (37 °C ± 0.2 °C), while the acceptor was filled with 5 mL of PBS at pH 7.4 (constant stirring at 100 rpm).
Samples were centrifuged at 2000× g for 10 min, and supernatants were analyzed using HPLC as described in Section 4.1.
The procedure for extracting the drug from the tissue was as follows: after the experiment was completed, each tissue was carefully removed from the Franz cell and immersed in 5 mL of methanol. It was then sonicated for 30 min, followed by 10 min of vertexing, another 30 min in the sonicator, and 10 min of vertexing. Finally, the samples were centrifuged for 20 min at 5000× g, and the supernatant was collected for analysis.

A short description of data set [7]: Retention on reversed-phase C4 HPLC column as indication of tissue penetration. Type of data set: physicochemical. The conditions noted are these: ACE C4 150 × 4.6 mm, MeOH-H2O 10:90, 0.5 mL/min, 40 °C. The procedure: Under the given conditions, it was assumed that the stationary phase simulates the tissue while the aqueous mobile phase represents the surrounding space. […] The analysis was carried out under isocratic conditions with a flow rate of 0.5 mL/min and a mobile phase consisting of MeOH-H2O at 10:90 (v/v).

Data set [8] can be described thus: Franz diffusion cell in vitro permeability, hybrid PVDF-cellulose membrane.
Description: as §1, §2
as §3, with “Blanks containing PBS were pretreated with the same procedure.” left out, “Equation (1) was applied to calculate the apparent permeability coefficient (cm/h) (Paap).” left out

The conditions of data set [9]: cited from earlier work.
The mark [10] stands for this setting: rank among the six drugs by cumulative amount after 8 h.

`Clc1ccc(COC(Cn2ccnc2)c2ccc(Cl)cc2Cl)cc1` (stereo not shown) [ECO, econazole]: in data set [1] (ref European Pharmacopeia), the “Tangible aqueous solubility (descriptive term)” value is reported as “very slightly soluble”. Besides, the PSA in data set [1] is on record as 27 Å2. In data set [2], the “Cumulative Amount Permeated, PVDF (Hydrophobic)” value was determined as 15.3 μg/cm^2; the apparent permeability (Papp) at 8 h was 0.0417 ×10⁻⁶ cm/s; the “permeation order of the substance, PVDF (Hydrophobic)” value (from here on “permeation order … (Hydrophobic)”) is reported as 6th. Moreover, in [3], the “Cumulative Amount Permeated, Impregnated IPM” value was 0.92 μg/cm^2; the apparent permeability (Papp) at 8 h was 0.0389 ×10⁻⁶ cm/s; the “permeation order of the substance, Impregnated IPM” value came to 4th. Besides, the “diffusion profile in cellulose-IPM membrane” value in [4] was “zero”. For the same compound, in [5], the “Papp value / permeability / diffusion profile in cellulose membrane” value is reported as “negligible”; the “Cumulative Amount Permeated, Cellulose (Hydrophilic)” value worked out at 1.7 μg/cm^2; the Papp (experimental, in vitro) was 0.239 ×10⁻⁶ cm/s; the Papp at 8 h was 0.239 ×10⁻⁶ cm/s. For the same compound, in data set [5], the “permeation order of the substance, Cellulose (Hydrophilic)” value (“permeation order … (Hydrophilic)” for short) is given as 5th. Besides, the “tissue permeability / diffusion profile in vaginal tissue, ex vivo” value (“tissue permeability / diffusion profile” for short) in data set [6] was “zero”. In [6] (cow, 8 h), the “Acceptor's Mass” value was 0 mg, the “Final Mass Donor” value is reported as 0.2 (±0.01) mg and the “Tissue Extraction” value is 0.01 (±0.001) mg. The “Retention time (tr) in column C4” value in data set [7] was 9.94 min.
For `CCN(CC)CC(=O)Nc1c(C)cccc1C` [LIDO, lidocaine], in [6] (cow, 8 h), the “Acceptor's Mass” value is reported as 0.53 (±0.09) mg, the “Final Mass Donor” value is listed as 0.9 (±0.1) mg and the “Tissue Extraction” value is on record as 0.5 (±0.09) mg.
`Cc1ncc([N+](=O)[O-])n1CCO` [METRO, metronidazole]: in data set [1] (ref European Pharmacopeia), the “Tangible aqueous solubility (descriptive term)” value is “very soluble” and the “Tangible aqueous solubility (value in brackets)” value was 5920 µg/mL. Further, the PSA in data set [1] was 83.87 Å2. For the same compound, in data set [2], the “Cumulative Amount Permeated, PVDF (Hydrophobic)” value is 2008.4 μg/cm^2; the apparent permeability coefficient (Papp) at 8 h is 2.5 ×10⁻⁶ cm/s; the “permeation order … (Hydrophobic)” value was 1st. In [3], the “Cumulative Amount Permeated, Impregnated IPM” value came out at 2373.1 μg/cm^2; the Papp at 8 h was 3.89 ×10⁻⁶ cm/s; the “permeation order of the substance, Impregnated IPM” value is 1st. Besides, the “Cumulative Amount Permeated, IPM-Cellulose” value in [4] (after 8 h, mean ± SD (n = 3)) is given as 307.3 μg/cm^2. For the same compound, the Papp at 8 h in [4] (pH 7.4) is 0.556 ×10⁻⁶ cm/s. In addition, the “permeation order of the substance, IPM-Cellulose” value in data set [4] (setting [10]) was found to be 3rd. Also, in [8] (after 8 h, mean ± SD (n = 3)), the “Cumulative Amount Permeated, PVDF-Cellulose” value was found to be 370.2 μg/cm^2. For the same compound, the Papp at 8 h in data set [8] (pH 7.4) was 1.11 ×10⁻⁶ cm/s. In data set [8] (setting [10]), the “permeation order of the substance, PVDF-Cellulose” value turned out to be 3rd. In data set [5], the “Cumulative Amount Permeated, Cellulose (Hydrophilic)” value was determined as 3976.4 μg/cm^2; the Papp (experimental, in vitro) is 6.39 ×10⁻⁶ cm/s; the Papp at 8 h was 6.39 ×10⁻⁶ cm/s; the “permeation order … (Hydrophilic)” value was found to be 1st. This compound had a Papp at 8 h, 10 mg/mL in data set [6] (cow) of 12.8 ×10⁻⁶ cm/s. For the same compound, in data set [6] (cow, 8 h), the “Acceptor's Mass” value is 0.65 (±0.08) mg, the “Final Mass Donor” value is given as 0.01 (±0.001) mg and the “Tissue Extraction” value was 1.4 (±0.2) mg. Also, in [6] (cow, 8 h, 10 mg/mL), the “Cumulative Amount Permeated, Tissue” value is 3419.5 μg/cm^2 and the “permeation order of the substance, Tissue” value stood at 1st. In data set [7], the “Retention time (tr) in column C4” value was 3.93 min.
On to `Clc1ccc(COC(Cn2ccnc2)c2ccc(Cl)cc2Cl)c(Cl)c1` (stereo not shown) [MICO, miconazole], for which the “Tangible aqueous solubility (descriptive term)” value in data set [1] (ref European Pharmacopeia) is on record as “very slightly soluble”. In addition, the PSA in [1] is listed as 27 Å2. In data set [2], the “Cumulative Amount Permeated, PVDF (Hydrophobic)” value worked out at 33.4 μg/cm^2; the Papp at 8 h is 0.806 ×10⁻⁶ cm/s; the “permeation order … (Hydrophobic)” value stood at 5th. Besides, in [4], the “diffusion profile in cellulose-IPM membrane” value is “zero”. Also, in data set [5], the “Papp value / permeability / diffusion profile in cellulose membrane” value is “negligible and zero”; the Papp (experimental, in vitro) is 0 ×10⁻⁶ cm/s. Further, the “tissue permeability / diffusion profile” value in [6] is given as “zero”. Further, in data set [6] (cow, 8 h), the “Acceptor's Mass” value was determined as 0 mg, the “Final Mass Donor” value is reported as 0.26 (±0.02) mg and the “Tissue Extraction” value is recorded as 0 mg. Also, in data set [7], the “Retention time (tr) in column C4” value was determined as 10.2 min.
`CCCCCCCCCc1ccc(OCCOCCOCCOCCOCCOCCOCCOCCOCCO)cc1` [NONO, nonoxynol-9]: the “Tangible aqueous solubility (descriptive term)” value in data set [1] (ref European Pharmacopeia) is “miscible with H2O”. In data set [1], the PSA is reported as 103.3 Å2. Besides, in [2], the “Cumulative Amount Permeated, PVDF (Hydrophobic)” value is given as 1752.2 μg/cm^2 and the “permeation order … (Hydrophobic)” value was found to be 2nd. Moreover, the “diffusion profile in cellulose-IPM membrane” value in [4] is “zero”. Besides, in data set [5], the “Papp value / permeability / diffusion profile in cellulose membrane” value is “negligible”; the “Cumulative Amount Permeated, Cellulose (Hydrophilic)” value is on record as 20.1 μg/cm^2; the Papp (experimental, in vitro) was 0.0556 ×10⁻⁶ cm/s; the “permeation order … (Hydrophilic)” value worked out at 4th. Besides, the “tissue permeability / diffusion profile” value in data set [6] is “does not penetrate the vaginal tissue at all and zero”. For the same compound, the “Tissue Extraction” value in data set [6] (drug extracted from tissue with methanol after the experiment) is 0.15 (±0.05) mg. For the same compound, the “Acceptor's Mass” value in data set [6] (ex vivo, end of experiment) is on record as 0 mg. In data set [6] (ex vivo, end of experiment, mean ± SD (n = 3)), the “Final Mass Donor” value was 1.85 (±0.2) mg. In data set [7], the “Retention time (tr) in column C4” value turned out to be 39.48 min.
For the compound `O=[N+]([O-])OCC(CO[N+](=O)[O-])O[N+](=O)[O-]` [nitroglycerin], the “log P” value in data set [9] is given as 1.6.
